From patent US11447445B2, “Diabetes and metabolic syndrome treatment with a novel dual modulator of soluble epoxide hydrolase and peroxisome proliferator-activated receptors” (priority 2015, dated 2022)
Converted amounts (≈) assume the structure as drawn.

Legend:
PPARδ = target: T1, PPARδ (Homo sapiens, UniProt Q03181); test: PPAR transactivation assay in COS-7 cells (Gal4-hPPAR-LBD, luciferase); assay type: cell-based; details: i.a. = inactive
T1 construct: expressed in transfected cells; host or cells: COS-7
T1 sequence (Q03181 211-439): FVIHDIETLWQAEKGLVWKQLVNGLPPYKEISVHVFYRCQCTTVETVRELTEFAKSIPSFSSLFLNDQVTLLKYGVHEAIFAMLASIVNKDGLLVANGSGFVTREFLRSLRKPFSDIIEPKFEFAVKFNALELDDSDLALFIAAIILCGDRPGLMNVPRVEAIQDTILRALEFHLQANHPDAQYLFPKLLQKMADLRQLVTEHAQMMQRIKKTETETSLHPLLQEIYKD

[1] = test system: PPARγ target genes (GLUT4, Adiponectin, FABP4, LPL); test: qPCR of PPARγ target genes in human primary adipocytes; assay type: cell-based
Experimental: (§1) Human primary preadipocytes were obtained from stromal vascular fraction of subcutaneous fat from anonymous donors undergoing elective cosmetic surgery. Adipose tissue was digested by collagenase solution (0.3 U/ml in 1% BSA/PBS) for 45 min at 37° C. with constant shaking. Floating mature adipocytes were removed and the pellet containing the stromal vascular fraction was resuspended in erythrocyte lysis buffer. […] After 4 days the medium was changed to 3FC medium (QuickDiff medium without dexamethasone, IBMX and rosiglitazone). Adipocytes were cultured for additional 14 days before medium was changed to basal medium consisting of DMEM/Ham's F12 with biotin and panthotenate. This investigation conforms to the ethical principles outlined in the Declaration of Helsinki and was approved by the university ethics committee (Ethik-Kommission des Fachbereichs Medizin der Goethe-Universitat Frankfurt am Main). Total RNA was isolated using PeqGold RNAPure (Peqlab) according to manufacturer's instructions and was transcribed to cDNA using Maxima First Strand cDNA synthesis kit (Thermo Scientific), following manufacturer's instructions. Quantitative PCR was performed with iQ SYBR green Supermix (Bio-Rad) using a CFX96 (Bio-Rad) system. Expression was normalized to actin RNA.

[2] = In vitro drug metabolism in rat liver microsomes; assay type: in vitro ADME; details: 10 μM, 1 h incubation
Experimental: The incubation was performed in a shaking water bath at 37° C. The reaction was stopped by the addition of 500 μl ice-cold methanol at 0, 15, 30 and 60 min. The samples were centrifuged at 10 000 g for 5 min at 4° C. The supernatants were analysed and quantified by HPLC. Control samples were always performed to check the stability of the compounds in the reaction mixture. First control was without NADPH, which is needed for the enzymatic activity of the microsomes. Second control was with inactivated microsomes (microsomes that were incubated for 20 min at 90° C.). Third control was without test compounds (to determine the baseline). As positive control, a solution of 7-ethoxycoumarin (1 mM) was used. The final concentration of the control compound, under assay conditions, was again 10 μM. The amounts of the test compounds were quantified by an external calibration curve.

HepG2 cells = test: WST-1 cytotoxicity assay; assay type: cell-based; details: up to a concentration of 30 μM; 48 hours
Experimental: The WST-1 assay (Roche Diagnostic GmbH, Mannheim, Germany) was used to determine the cell viability after treatment with the compounds. For this purpose, Hela and HepG2 cells were seeded each in 96-well plates at a density of 1×10^4 per well in DMEM with Phenolred and in presence of 10% FCS. After 24 hours the medium was changed. Fresh DMEM with 10% FCS was added and the cells were treated with the compounds for 48 hours. Cell viability was assessed according to the manufacturer's protocol using a microplate reader (infinity M200, Tecan Group Ltd., Crailsheim, Germany). All experiments were performed at least in triplicate.

3T3-L1 fibroblasts = test: Adipocyte differentiation of murine 3T3-L1 cells (Oil Red O staining); assay type: cell-based; details: 1c 1-10 μM; CIU 10 μM
Experimental: 3T3-L1 cells were subcultured in DMEM containing 10% newborn calf serum in a humidified atmosphere at 37° C., 5% CO2. […] Briefly, cells were seeded in 6-well plates (2.5×10^6/well). Differentiation was started at day 3 by addition of 1 μg/ml insulin, 0.25 dexamethasone and 0.5 mM isobutylmethylxanthine in DMEM supplemented with 10% fetal calf serum. At day 5 medium was replaced by medium containing only insulin for 2 more days. After this, cells were kept for lipid droplet accumulation in basal medium without additions until day 15.

[3] = test system: human primary preadipocytes; test: Adipocyte differentiation of human primary preadipocytes (Oil Red O staining); assay type: cell-based; details: 1c 1-10 μM; CIU 10 μM
Experimental: as §1

[4] = after p.o. 30 mg/kg bw of 1c
Experimental: Blood was sampled 15 min, 30 min, 1 h, 2 h, 4 h and 8 h after test item application and only 8 h after vehicle application. Each drug treated mouse was sampled twice (0.25 and 0.5 h, 1 and 2 h, 4 and 8 h) via retro orbital puncture. Blood was collected in tubes containing lithium-heparin, stored on ice and subsequently centrifuged at 6000 rpm for 10 minutes at 4° C. (Heraeus biofuge fresco). The plasma was prepared within 45 min after sampling and kept at −20° C. until being assayed. For further kinetic and dynamic analysis the tissues (brain, liver, abdominal fat) were collected 30 min, 2h and 8 h post dose, after the second plasma sampling of each drug treated mouse. Tissue of the vehicle group was sampled only once, 8 h post dose. A volume of 40 μl acetonitrile containing the internal standard (300 ng/ml Diazepam) was added to 20 μl of mouse plasma sample, plasma calibration standard and plasma QC samples. Samples were vigorously shaken and centrifuged for 10 minutes at 6000 g and 20° C. The particle free supernatant was diluted 1:1 with water. An aliquot was transferred to 200 μl sampler vials and subsequently subjected to LC MS with an injection volume of 20 pl. The brain samples were homogenized in PBS (1+1, w/v) using the Precellys 24/Dual homogenizer. A volume of 20 μl of the brain homogenate was mixed (1+1 v/v/) with 20 μl mouse blank plasma. Then 80 μl acetonitrile containing the internal standard (300 ng/ml Diazepam) were added. Samples were vigorously shaken and centrifuged for 10 minutes at 6000 g and 20° C. The particle free supernatant was diluted 1:1 with water. An aliquot was transferred to 200 μl sampler vials and subsequently subjected to LC MS with an injection volume of 20 μl. Mass spectrometry was performed on a TSQ Quantum Discovery Max triple quadrupole mass spectrometer equipped with an electrospray (ESI) interface (Thermo Fisher Scientific, USA) connected to a PC running the standard software Xcalibur 2.0.7. […]

hFFA1 = target: T2, hFFA1 (Homo sapiens, UniProt O14842); test: IP1 accumulation in HEK293 cells stably expressing hFFA1; assay type: cell-based; details: read-out: pEC50 (IP1 accumulation) (converted)
T2 construct: expressed in transfected cells; host or cells: Flp-In T-REx 293 (HEK293), doxycycline-induced
T2 sequence (O14842 whole entry): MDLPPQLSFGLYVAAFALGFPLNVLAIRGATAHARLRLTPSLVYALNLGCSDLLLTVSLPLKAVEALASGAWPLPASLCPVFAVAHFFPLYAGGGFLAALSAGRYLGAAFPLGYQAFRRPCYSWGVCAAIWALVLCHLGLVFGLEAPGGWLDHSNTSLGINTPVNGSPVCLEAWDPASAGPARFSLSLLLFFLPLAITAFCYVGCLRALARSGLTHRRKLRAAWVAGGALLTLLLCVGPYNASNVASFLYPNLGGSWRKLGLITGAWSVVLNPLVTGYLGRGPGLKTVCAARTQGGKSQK
Experimental: (§2) Stably transfected Flp-In™ T-REx™ 293 cells (Invitrogen) were cultured in Dulbecco's modified Eagles's medium (DMEM) containing 10% (v/v) fetal bovine serum (FBS), penicillin (100 U/mL), streptomycin ([…]), Hygromycin B (100 μg/mL) and Blasticidin (15 μg/mL) at 37° C. and 5% CO2. All experiments were carried out after inducing receptor expression with 1 μg/mL doxycycline for approximately 18 hours, according to manufacturer's instructions (Invitrogen).
(§3) Compound activity on the Gq coupled FFA1 receptor constructs was assessed by measuring intracellular level of inositolmonophosphate (IPI) using the HTRF®-IP-One kit (Cisbio International) according to manufacturer's instructions. Briefly, 10,000 receptor expressing cells were seeded into a 384 well microplate and incubated 20 minutes at 37° C. […] Data analysis and nonlinear regression curve fitting were carried out using the GraphPad Prism® software v5.04 (Graphpad Software).

recombinant human sEH = target: T3, recombinant human sEH (Homo sapiens, UniProt P34913); test: biochemical; details: read-out: IC50 sEH (converted)
T3 sequence (P34913 1-555): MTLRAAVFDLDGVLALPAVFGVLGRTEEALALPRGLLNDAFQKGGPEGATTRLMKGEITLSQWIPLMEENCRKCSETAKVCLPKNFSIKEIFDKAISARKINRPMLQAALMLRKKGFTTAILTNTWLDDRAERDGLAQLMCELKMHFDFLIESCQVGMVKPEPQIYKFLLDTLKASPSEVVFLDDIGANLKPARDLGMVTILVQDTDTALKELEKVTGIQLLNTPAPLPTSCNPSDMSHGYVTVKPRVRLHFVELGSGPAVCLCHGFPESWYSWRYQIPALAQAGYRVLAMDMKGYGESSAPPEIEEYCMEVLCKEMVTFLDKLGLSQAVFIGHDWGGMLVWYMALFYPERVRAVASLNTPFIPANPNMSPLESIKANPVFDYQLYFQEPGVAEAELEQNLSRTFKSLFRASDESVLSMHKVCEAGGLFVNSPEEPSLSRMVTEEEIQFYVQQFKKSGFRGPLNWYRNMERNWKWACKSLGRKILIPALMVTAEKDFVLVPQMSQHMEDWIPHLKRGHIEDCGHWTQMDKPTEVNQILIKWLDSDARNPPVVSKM

[5] = test system: PPARγ target genes (GLUT4, Adiponectin, FABP4, LPL); test: qPCR of PPARγ target genes in differentiated 3T3-L1 cells; assay type: cell-based, murine; details: 1-10 μM; compared to rosiglitazone 2 μM
Experimental: 3T3-L1 cells were subcultured in DMEM containing 10% newborn calf serum in a humidified atmosphere at 37° C., 5% CO2. […] Briefly, cells were seeded in 6-well plates (2.5×10^6/well). Differentiation was started at day 3 by addition of 1 μg/ml insulin, 0.25 dexamethasone and 0.5 mM isobutylmethylxanthine in DMEM supplemented with 10% fetal calf serum. At day 5 medium was replaced by medium containing only insulin for 2 more days. After this, cells were kept for lipid droplet accumulation in basal medium without additions until day 15. […] Differentiation of 3T3-L1 cells was confirmed by Oil Red 0 staining. Cells were washed with PBS and subsequently fixed for 60 minutes with a formaldehyde solution (4% in PBS). After this, cells were rinsed with 60% isopropanol and incubated with Oil Red 0 solution (0.3%) for 120 minutes.
3T3-L1 cells or homogenized mouse tissues were lysed using TRIzol® reagent (Ambion, life technologies, Carlsbad, USA) and mRNA was isolated following the manufacturers protocol. DNA contaminations were digested using DNAse (DNase I, RNase-free Kit; Thermo Scientific, Waltham, USA) and mRNA concentrations were measured with a NANODROP2000 spectrophotometer (Thermo Scientific, Waltham, USA). […] All samples were measured in triplicates and were analyzed using the ΔΔCT method.

PPARγ target gene CD36 = test: CD36 expression in mouse liver (qPCR); assay type: in vivo; details: single p.o. 30 mg/kg bw, 8 h; compared to non-treated mice
Experimental: 3T3-L1 cells or homogenized mouse tissues were lysed using TRIzol® reagent (Ambion, life technologies, Carlsbad, USA) and mRNA was isolated following the manufacturers protocol. DNA contaminations were digested using DNAse (DNase I, RNase-free Kit; Thermo Scientific, Waltham, USA) and mRNA concentrations were measured with a NANODROP2000 spectrophotometer (Thermo Scientific, Waltham, USA). Subsequently, reverse transcription was performed using the High Capacity RNA-to-cDNA Kit (Applied Biosystems, Foster City, USA). PCR was performed using specific primers for GLUT-4, FABP-4, LPL, adiponectin and CD36 (shown under supporting informations) with a StepOnePlus Real-Time PCR System (Applied Biosystems, Foster City, USA). NoNo (3T3-L1) and β-Actin (mouse tissue) were used as reference genes. All samples were measured in triplicates and were analyzed using the ΔΔCT method.

[6] = Water solubility approximation; assay type: physicochemical; details: aqueous with cosolvent or surfactant or cyclodextrin, kinetic from dmso stock; PBS pH 7.4, 0.01% Polysorbate 20, 1% DMSO; precipitation at 650 nm; read-out: w.s. (water solubility)
Experimental: PBS at pH 7.4 with 0.01% Polysorbate 20 (Tween) was combined with 1% of a DMSO solution of the inquired compound in a 96-well transparent flat bottom microtiter plate. Precipitation of the compound was measured at 650 nm with a Tecan Infinite 200 (Tecan Group Ltd, Mannedorf, Switzerland).

PPARα = target: T4, PPARα (Homo sapiens, UniProt Q07869); assay type: cell-based
T4 construct: expressed in transfected cells; host or cells: COS-7
T4 sequence (Q07869 239-466): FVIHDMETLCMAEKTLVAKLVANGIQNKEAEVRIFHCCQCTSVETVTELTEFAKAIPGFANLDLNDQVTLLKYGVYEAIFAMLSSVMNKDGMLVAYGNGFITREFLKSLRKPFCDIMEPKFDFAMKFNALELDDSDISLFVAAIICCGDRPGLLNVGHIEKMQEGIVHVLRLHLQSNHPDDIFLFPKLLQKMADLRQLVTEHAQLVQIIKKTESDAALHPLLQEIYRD

mFFA1 = target: T5, mFFA1 (Mus musculus, UniProt Q76JU9); test: IP1 accumulation in HEK293 cells stably expressing mFFA1; assay type: cell-based; details: read-out: pEC50 (IP1 accumulation) (converted)
T5 construct: expressed in transfected cells; host or cells: Flp-In T-REx 293 (HEK293), doxycycline-induced
T5 sequence (Q76JU9 whole entry): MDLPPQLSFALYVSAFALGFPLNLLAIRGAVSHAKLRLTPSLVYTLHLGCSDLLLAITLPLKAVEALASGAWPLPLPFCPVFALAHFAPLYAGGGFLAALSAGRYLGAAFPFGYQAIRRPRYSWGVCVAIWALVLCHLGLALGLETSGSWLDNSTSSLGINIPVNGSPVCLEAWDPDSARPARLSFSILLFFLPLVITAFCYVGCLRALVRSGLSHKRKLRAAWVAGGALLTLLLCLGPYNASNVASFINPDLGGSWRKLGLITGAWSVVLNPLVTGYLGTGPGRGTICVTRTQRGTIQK
Experimental: as §2, §3

SHROB rats = test system: SHROB rats
Experimental: SHROB were treated with RB394 (10 mg/kg/d, p.o.; […]) for 8-weeks.
Metabolic syndrome (MetS) is a cluster of symptoms including hypertension, hyperglycemia, hypertriglyceridemia and obesity. […] The inventors hypothesized that the development of a dual modulator (a drug that combines two pharmacophores) could treat more than one symptom of MetS and prevent renal injury. […] The inventors synthesized a novel dual sEH inhibitor-PPAR-γ agonist (sEHi/PPAR-γ), RB394 and investigated its efficacy in a rat model of MetS (see FIG. 21). Three groups of rats were utilized; Group 1: Wister Kyoto (WKY)+Vehicle (n=6); Group 2: Spontaneously Hypertensive Obese (SHROB)+Vehicle (n=5); Group 3: SHROB+RB394 (10 mg/kg/d p.o.; n=5). RB394 or vehicle treatments were administered for 56 days, blood pressure measured, and urine and kidney tissues collected at the end of treatment period. […] Kidney injury was assessed from albuminuria, and also from histopathological analysis of renal tubular cast formation, collagen formation and glomerular injury using Periodic Acid Schiff and Picro Sirius Red staining.
The Medical College of Wisconsin Institutional Animal Care and Use Committee according to the National Institutes of Health Guidelines for Care and Use of Laboratory Animals approved all animal studies. Eight to nine-week-old male Wistar-Kyoto (WKY), and SHROB were purchased from Charles River Laboratories (Wilmington, Mass., USA). Animals were housed in the Biomedical Resource Center at Medical College of Wisconsin with a 12 hour light-dark cycle and free access to tap water along with rat chow. WKY rats (n=6) were used as a control group as a comparison for disease progression. SHROB rats were divided into 2 groups. Group 1 received vehicle (n=5) and Group 2 received RB394 (10 mg/kg/d p.o.; n=5) for 8 weeks. Rats were weighed and systolic blood pressure was measured by tail-cuff plethysmography.
Intra-peritoneal glucose tolerance test was carried out during the 8-week treatment protocol in rats that were fasted overnight and injected with glucose (2 g/kg i.p.). Blood samples were collected from the tail vein before and at different time points after glucose injection. The tail vein blood glucose levels were measured using a glucometer LifeScan (Miltipas, Calif., USA).
Urinary biochemical analysis was done using commercially available ELISA kits; albumin and from Exocell (Philadelphia, Pa.). Rats were anesthetized using isoflorane and plasma collected from the artery. Triglyceride, cholesterol, protein and creatinine assay kits were from Cayman (Ann Arbor, Mich., USA), and free fatty acids from Zen-Bio Inc. (Research Triangle Park, N.C.). Blood glucose levels from the tail vein were measured using a glucometer.
The kidney was excised and immersion-fixed in 10% neutral buffered formalin and paraffin embedded. The embedded kidney and pancreas sections were cut into 4 μm slices for use in histology. Formalin-fixed paraffin-embedded tissue slices were deparaffinized, re-hydrated, and kidney tissue slices were stained with Periodic Acid-Schiff (PAS) and Masson's Trichorme. Glomerulosclerosis and mesangial matrix expansion were blindly scored from kidney sections stained with PAS staining using the following numeric scale: 0=no damage; +1=very mild; +2=mild; +3=moderate and +4=severe. Two observers in a blinded fashion conducted histological analysis at a magnification of ×200 using Nikon NIS Elements Software (Nikon Instruments Inc., Melville, N.Y., USA). Proteinaceous cast in the kidney was also determined in PAS stained kidney sections at magnification of ×200 using Nikon NIS Elements Software. The percentage area positive for proteinaceous cast was calculated from the mean of eight cortical and five medullary fields for each animal. Fibrosis in the kidney was determined in kidney sections stained with Masson's Trichorme at a magnification of ×200.

[7] = SHROB + RB394 10 mg/kg/d p.o., 8 weeks
[8] = SHROB + RB394 10 mg/kg/d p.o., 56 days

CCC(Cc1ccc(C(=O)NCc2ccccc2C(F)(F)F)cc1)C(=O)O (stereo not shown) [Compound 1c, 2-Ethyl 3-[4-(N-((2-trifluoromethyl)benzyl)benzamide)]propionic acid]
EC50 PPARδ (PPARδ): i.a.
upregulation of GLUT4 expression ([1]; 1c 10 μM): comparable to the rosiglitazone (2 μM) control
upregulation of Adiponectin, FABP4 and LPL ([1]; 1c stimulation): only minor effects
compound remaining intact after 1 h [2]: 92%
cell viability of HepG2 cells (WST-1) (HepG2 cells): did not impair cell viability
adipocyte differentiation (Oil-Red O) (3T3-L1 fibroblasts): dose-dependent effect
adipocyte differentiation (Oil-Red O) [3]: dose dependent (1-10 μM) effect
AUC0→∞ [4]: 15847 ng·h/mL
tmax [4]: 30 min
EC50 (hFFA1): 8.32 µM
IC50 (recombinant human sEH): 1.6 ± 0.2 µM
expression of PPARγ target genes (GLUT4, Adiponectin, FABP4, LPL) [5]: dose-dependently activated expression of all target genes analysed
increase of CD36 expression in liver (PPARγ target gene CD36): at least 2 fold
solubility [6]: 100 µM (≈ 37.9 µg/mL)
EC50 PPARα (PPARα; i.a. = inactive): i.a.
EC50 (mFFA1): 4.9 µM

CCC(Cc1ccc(C(=O)NCc2ccc(OC)cc2C(F)(F)F)cc1)C(=O)O (stereo not shown) [Compound 14c, 2-Ethyl 3-14-(N-(4-methoxy(2-trifluoromethyl)benzyl)benzamide)1 propionic acid]
EC50 PPARδ (PPARδ): n.t. i.a. i.a. n.t.
compound remaining intact after 1 h [2]: 96%
cell viability of HepG2 cells (WST-1) (HepG2 cells): did not impair cell viability
EC50 (hFFA1): 14.1 µM
solubility [6]: 500 µM (≈ 205 µg/mL)
PPARα activation @10 μM (PPARα; at 10 μM, compared to GW7647 1 μM): 29%
body weight gained more than vehicle treated SHROB (SHROB rats; 8 weeks): approximately 40 g
systolic blood pressure lower than vehicle treated SHROB (SHROB rats; 8 weeks): approximately 44 mmHg
Body Weight (SHROB rats; [7]): 600 ± 8 g
Fasting Blood Glucose (SHROB rats; [7]): 83 ± 7 mg/dL
Free fatty Acid (SHROB rats; [7]): ^#322 ± 24 μM
Serum Cholesterol (SHROB rats; [7]): #4.0 ± 0.7 mM
Triglyceride (SHROB rats; [7]): ^#133 ± 18 mg/DL
albuminuria (SHROB rats; [8]): 59 ± 11 mg/day
reduction of glomerular injury (SHROB rats; [8]): 45%
reduction of renal cast and collagen formation (SHROB rats; [8]): 40-50%
reduction of renal inflammation (infiltrating immune cells in the kidney) (SHROB rats; [8]): 20%
EC50 (mFFA1): 23.4 µM
